Reference: patent US9765016B2, “S1P modulating agents” (BIOGEN MA INC., priority 2013, dated 2017)

Biological target: T1, human S1P5 (Homo sapiens, UniProt Q9H228)
T1 construct: host or cells: recombinant CHEM cells
Assay: Calcium flux assay, antagonist assay format (S1P receptor activity assay)
Type: cell-based
Experimental: Agonist percentage activation determinations were obtained by assaying sample compounds and referencing the Emax control for each receptor profiled. Antagonist percentage inhibition determinations were obtained by assaying sample compounds and referencing the control EC80 wells for each receptor profiled.
Sample compounds were plated in an eight-point, four-fold dilution series in duplicate with a top concentration of 10 μM. The concentrations described here reflect the final concentration of the compounds during the antagonist assay.
Using the EC80 values determined during the agonist assay, stimulated all pre-incubated sample compound and reference antagonist (if applicable) wells with EC80 of reference agonist.

T1 sequence (Q9H228 whole entry): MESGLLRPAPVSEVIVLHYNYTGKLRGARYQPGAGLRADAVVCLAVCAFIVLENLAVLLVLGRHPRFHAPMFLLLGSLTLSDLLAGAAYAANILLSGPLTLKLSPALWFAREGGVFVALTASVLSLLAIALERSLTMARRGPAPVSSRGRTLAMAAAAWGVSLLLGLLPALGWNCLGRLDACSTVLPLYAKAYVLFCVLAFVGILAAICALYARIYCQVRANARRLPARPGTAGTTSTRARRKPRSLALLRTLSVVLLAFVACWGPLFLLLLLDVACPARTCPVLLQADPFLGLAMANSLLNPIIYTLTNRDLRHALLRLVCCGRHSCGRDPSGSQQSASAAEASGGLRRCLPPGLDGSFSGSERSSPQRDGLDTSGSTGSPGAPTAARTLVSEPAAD

For `Cc1cc(O[C@H]2CC[C@@H]([Si](C)(C)C)CC2)c(CN2CCC(C(=O)O)CC2)c2ccccc12` [Example 25, 1-((4-methyl-2-((cis-4-(trimethylsilyl)cyclohexyl)oxy)naphthalen-1-yl)methyl)piperidine-4-carboxylic acid], which IC50 is on record?
Its IC50 is ≤ 100 nM.
